US4764618A, “Arginine derivatives and pharmaceutically acceptable acid addition salts thereof” (Mitsubishi Chemical Industries Limited, priority 1984, dated 1988)

Target: T1, trypsin (Bos taurus, UniProt P00760)
T1 sequence (P00760 24-246): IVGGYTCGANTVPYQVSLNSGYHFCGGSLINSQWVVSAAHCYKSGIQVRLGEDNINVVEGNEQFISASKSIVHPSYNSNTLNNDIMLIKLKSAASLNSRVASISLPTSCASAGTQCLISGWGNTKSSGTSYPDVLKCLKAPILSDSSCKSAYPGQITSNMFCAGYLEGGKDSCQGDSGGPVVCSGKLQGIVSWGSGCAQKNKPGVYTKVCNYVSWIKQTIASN
Test: Determination of Trypsin-Inhibiting Activity (chromogenic substrate S-2222)
Type: biochemical
Conditions: inhibitor concentration giving 50% of ΔA/min (405 nm) without inhibitor; 33.3 μM S-2222, 0.1 M Tris-HCl pH 8.3, 37° C.; read-out: I50
Experimental: Trypsin-inhibiting activity of the arginine derivatives of this invention was determined by the method described below.
Determination of Trypsin-Inhibiting Activity
Trypsin activity is determined by measuring the rate of formation of para-nitroaniline from synthesized chromogenic substrate Jz-Ile-Glu(γ-OH and γ-OCH3)-Gly-Arg-pNA (S-2222)(benzoylisoleucylglutamyl(γ-OH:γ-OCH3 =1:1)glycylarginine p-nitroanilide) supplied by Kabi Diagnostica Inc. Three (3) ml of a reaction mixture containing 33.3 μM of S-2222 and 0.1 M Tris-HCl buffer solution (pH 8.3) is placed in a cell for spectrophotometry and the cell is placed in the thermostatic cell holder at 37° C. of a Hitachi 124 spectrophotometer. After the cell is kept at 37° C. for 3 minutes, 10 μl of a solution of trypsin dissolved in 0.001N HCl containing 0.05M CaCl2 is added, and increase in absorbance at 405 nm is continuously measured using a recorder to calculate ΔA/min at an initial portion. Various inhibitors in various concentrations are added and ΔA/min values are respectively measured. Data are plotted with the inhibitor concentration as abscissa and ΔA/min as ordinate. From the resulting graph the inhibitor concentrations which give ΔA/min corresponding to 50% of the ΔA/min value when no inhibitor is added are sought as I50.

Structure (SMILES)	IC50
COc1ccc2ccc(S(=O)(=O)N[C@@H](CCCNC(=N)N)C(=O)N3CCC(C(C)=O)(c4ccccc4)CC3)cc2c1 [compound 27]	35000 nM
COc1cc2c(S(=O)(=O)N[C@@H](CCCNC(=N)N)C(=O)N3CCC(c4ccccc4)CC3)cccc2cc1C(=O)O [compound 50]	450000 nM
COc1ccc2cc(S(=O)(=O)N[C@@H](CCCNC(=N)N)C(=O)N3CCC(c4ccccc4)CC3)cc(OC)c2c1 [compound 13]	2250 nM
Cc1ccc(S(=O)(=O)N[C@@H](CCCNC(=N)N)C(=O)N2CCC(c3ccccc3)CC2)cc1 [Run No. 5]	22000 nM
COc1ccc2ccc(S(=O)(=O)N[C@@H](CCCNC(=N)N)C(=O)N3CCC(Oc4ccccc4)CC3)cc2c1 [compound 43]	25000 nM
N=C(N)NCCC[C@H](NS(=O)(=O)c1ccc2oc3ccccc3c2c1)C(=O)N1CCC(c2ccccc2)CC1 [compound 10]	2200 nM
COc1ccc2ccc(S(=O)(=O)N[C@@H](CCCNC(=N)N)C(=O)N3CCC(C#N)(c4ccccc4)CC3)cc2c1 [compound 30]	1300 nM
COc1ccc(C2CCN(C(=O)[C@H](CCCNC(=N)N)NS(=O)(=O)c3ccc4ccc(OC)cc4c3)CC2)cc1 [compound 52]	200 nM
N=C(N)NCCC[C@H](NS(=O)(=O)c1cccc2ccccc12)C(=O)N1CCC(c2ccccc2)CC1 [compound 37]	11000 nM
COc1ccc2ccc(S(=O)(=O)N[C@@H](CCCNC(=N)N)C(=O)N3CCN(c4ccc(Cl)cc4)CC3)cc2c1 [compound 16]	690 nM
COc1cc2ccc(S(=O)(=O)N[C@@H](CCCNC(=N)N)C(=O)N3CCC(c4ccccc4)CC3)cc2cc1OC [Run No. 3]	2400 nM
COc1ccc2cc(S(=O)(=O)N[C@@H](CCCNC(=N)N)C(=O)N3CCC(c4ccccc4)CC3)ccc2c1 [compound 31]	41200 nM
N=C(N)NCCC[C@H](NS(=O)(=O)c1ccc2ccccc2c1)C(=O)N1CCC(c2ccccc2)CC1 [compound 38]	3200 nM
COc1ccc2ccc(S(=O)(=O)N[C@@H](CCCNC(=N)N)C(=O)N3CCC(c4ccc(C)cc4)CC3)cc2c1 [compound 53]	370 nM
COc1ccc(N2CCN(C(=O)[C@H](CCCNC(=N)N)NS(=O)(=O)c3ccc4ccc(OC)cc4c3)CC2)cc1 [compound 28]	2800 nM
COc1ccc2ccc(S(=O)(=O)N[C@@H](CCCNC(=N)N)C(=O)N3CCC(c4ccccc4)CC3C(=O)O)cc2c1 (stereo partly shown) [compound 24]	400 nM
COc1ccc2ccc(S(=O)(=O)N[C@@H](CCCNC(=N)N)C(=O)N3CCN(c4ccccc4OC)CC3)cc2c1 [compound 20]	800 nM
COc1ccc2ccc(S(=O)(=O)N[C@@H](CCCNC(=N)N)C(=O)N3CCN(c4ccccc4C)CC3)cc2c1 [compound 22]	400 nM
COc1ccc(S(=O)(=O)N[C@@H](CCCNC(=N)N)C(=O)N2CCC(c3ccccc3)CC2)c2ccccc12 [compound 29]	2200 nM
CCOC(=O)C1CC(c2ccccc2)CCN1C(=O)[C@H](CCCNC(=N)N)NS(=O)(=O)c1ccc2ccc(OC)cc2c1 (stereo partly shown) [Run No. 23]	650 nM

Structure (SMILES)	IC50
COc1ccc2ccc(S(=O)(=O)N[C@@H](CCCNC(=N)N)C(=O)N3CCC(c4ccccc4C)CC3)cc2c1 [compound 40]	400 nM
CC1CNc2c(cccc2S(=O)(=O)N[C@@H](CCCNC(=N)N)C(=O)N2CCC(c3ccccc3)CC2)C1 (stereo partly shown) [Run No. 1]	2100 nM
CCOC(=O)C1(c2ccccc2)CCN(C(=O)[C@H](CCCNC(=N)N)NS(=O)(=O)c2ccc3ccc(OC)cc3c2)CC1 [Run No. 54]	12000 nM
N=C(N)NCCC[C@H](NS(=O)(=O)c1ccc2c(c1)CCCC2)C(=O)N1CCC(c2ccccc2)CC1 [compound 35]	6700 nM
COc1ccc2ccc(S(=O)(=O)N[C@@H](CCCNC(=N)N)C(=O)N3CCN(c4ccccc4)CC3)cc2c1 [compound 7]	1500 nM
COc1ccc2ccc(S(=O)(=O)N[C@@H](CCCNC(=N)N)C(=O)N3CCN(c4ccccc4O)CC3)cc2c1 [compound 55]	800 nM
N=C(N)NCCC[C@H](NS(=O)(=O)c1ccc2ccc(O)cc2c1)C(=O)N1CCC(c2ccccc2)CC1 [compound 42]	37000 nM
COc1cccc2cccc(S(=O)(=O)N[C@@H](CCCNC(=N)N)C(=O)N3CCC(c4ccccc4)CC3)c12 [compound 36]	87000 nM
CC1CNc2c(cccc2S(=O)(=O)N[C@@H](CCCNC(=N)N)C(=O)N2CCN(c3ccccc3)CC2)C1 (stereo partly shown) [compound 6]	10000 nM
COc1ccc2ccc(S(=O)(=O)N[C@@H](CCCNC(=N)N)C(=O)N3CCC(c4ccccc4OC)CC3)cc2c1 [compound 39]	280 nM
Cc1ccc(S(=O)(=O)N[C@@H](CCCNC(=N)N)C(=O)N2CCN(c3ccccc3)CC2)cc1 [compound 8]	74000 nM
COc1ccc2ccc(S(=O)(=O)N[C@@H](CCCNC(=N)N)C(=O)N3CCC(c4cccc(C)c4)CC3)cc2c1 [compound 51]	300 nM
CCOc1ccc2ccc(S(=O)(=O)N[C@@H](CCCNC(=N)N)C(=O)N3CCC(c4ccccc4)CC3)cc2c1 [compound 21]	900 nM
COc1ccc2ccc(S(=O)(=O)N[C@@H](CCCNC(=N)N)C(=O)N3CCN(c4cc(Cl)cc(Cl)c4)CC3)cc2c1 [compound 45]	1000 nM
CCOc1c(OC)ccc(S(=O)(=O)N[C@@H](CCCNC(=N)N)C(=O)N2CCC(c3ccccc3)CC2)c1OC [compound 19]	2400 nM
CCOC(=O)c1cc2cccc(S(=O)(=O)N[C@@H](CCCNC(=N)N)C(=O)N3CCC(c4ccccc4)CC3)c2cc1OC [Run No. 49]	2100 nM
N=C(N)NCCC[C@H](NS(=O)(=O)c1ccc2ccc(Cl)cc2c1)C(=O)N1CCC(c2ccccc2)CC1 [compound 48]	1100 nM
N=C(N)NCCC[C@H](NC(=O)c1cccc2ccccc12)C(=O)N1CCC(c2ccccc2)CC1 [compound 14]	395000 nM
COc1ccc2ccc(S(=O)(=O)N[C@@H](CCCNC(=N)N)C(=O)N3CCN(c4ccc(F)cc4)CC3)cc2c1 [compound 26]	860 nM
COc1cc2ccc(S(=O)(=O)N[C@@H](CCCNC(=N)N)C(=O)N3CCC(Cc4ccccc4)CC3)cc2cc1OC [Run No. 4]	3500 nM

Structure (SMILES)	IC50
COc1ccc2ccc(S(=O)(=O)N[C@@H](CCCNC(=N)N)C(=O)N3CC[C@H](c4ccccc4)C[C@H]3C(=O)O)cc2c1 [compound 57]	1900 nM
COc1ccc2ccc(S(=O)(=O)N[C@@H](CCCNC(=N)N)C(=O)N3CC[C@@H](c4ccccc4)C[C@@H]3C(=O)O)cc2c1 [compound 56]	150 nM
N=C(N)NCCC[C@H](NS(=O)(=O)c1ccc2c(c1)Cc1ccccc1-2)C(=O)N1CCC(c2ccccc2)CC1 [compound 11]	3200 nM
N=C(N)NCCC[C@H](NC(=O)c1ccc2ccccc2c1)C(=O)N1CCC(c2ccccc2)CC1 [compound 44]	110000 nM
COc1ccc2ccc(S(=O)(=O)N[C@@H](CCCNC(=N)N)C(=O)N3CCC(c4ccccc4)CC3)cc2c1 [Run No. 2, 1-[N^2-(7-methoxy-2-naphthalenesulfonyl)-L-arginyl]-4-phenylpiperidine]	230 nM
N=C(N)NCCC[C@H](NS(=O)(=O)c1ccc2cc3c(cc2c1)OCCO3)C(=O)N1CCC(c2ccccc2)CC1 [compound 15]	6000 nM
N=C(N)NCCC[C@H](NS(=O)(=O)c1cccc2c(Cl)cccc12)C(=O)N1CCC(c2ccccc2)CC1 [compound 47]	2500 nM
COc1ccc2ccc(S(=O)(=O)N[C@@H](CCCNC(=N)N)C(=O)N3CCN(c4cccc(C(F)(F)F)c4)CC3)cc2c1 [compound 46]	1600 nM
COc1ccc2ccc(S(=O)(=O)N[C@@H](CCCNC(=N)N)C(=O)N3CCC(C(=O)Nc4ccccc4)CC3)cc2c1 [compound 33]	3400 nM
COc1cc2ccc(S(=O)(=O)N[C@@H](CCCNC(=N)N)C(=O)N3CCN(c4ccccc4)CC3)cc2cc1OC [compound 9]	7800 nM
COc1ccc2ccc(S(=O)(=O)N[C@@H](CCCNC(=N)N)C(=O)N3CCN(c4cccc(Cl)c4)CC3)cc2c1 [compound 17]	380 nM
COc1ccc2ccc(S(=O)(=O)N[C@@H](CCCNC(=N)N)C(=O)N3CCN(c4ccccc4Cl)CC3)cc2c1 [compound 18]	330 nM
COc1ccc2ccc(S(=O)(=O)N[C@@H](CCCNC(=N)N)C(=O)N3CCC(Cc4ccccc4)CC3)cc2c1 [compound 25]	600 nM
Cc1cc2ccc(S(=O)(=O)N[C@@H](CCCNC(=N)N)C(=O)N3CCC(c4ccccc4)CC3)cc2cc1C [compound 32]	9000 nM
Cc1ccc2ccc(S(=O)(=O)N[C@@H](CCCNC(=N)N)C(=O)N3CCC(c4ccccc4)CC3)cc2c1 [compound 12]	1000 nM
COc1cccc(C2CCN(C(=O)[C@H](CCCNC(=N)N)NS(=O)(=O)c3ccc4ccc(OC)cc4c3)CC2)c1 [compound 58]	750 nM
N=C(N)NCCC[C@H](NS(=O)(=O)c1cccc2c1CCCC2)C(=O)N1CCC(c2ccccc2)CC1 [compound 34]	7700 nM
COc1ccc2ccc(S(=O)(=O)N[C@@H](CCCNC(=N)N)C(=O)N3CCC(c4ccc(Cl)cc4)CC3)cc2c1 [compound 41]	460 nM
